From patent publication US12606533B2, “3-phenylpropylamine derivative” (DAIICHI SANKYO COMPANY, LIMITED, priority 2023, dated 2026)

Assays:
[1] = biological target: T1, SF-1 (Homo sapiens, UniProt Q13285); assay: SF1 degradation induction in NCI-H295R SF-1-HiBiT cells (HiBiT DC50); type: cell-based; settings: 24 hr, concentration that induces 50% degradation of SF-1
T1 construct: NCI-H295R SF-1-HiBiT cells with HiBiT tag knocked in at the endogenous SF1 locus; host or cells: NCI-H295R SF-1-HiBiT (knock-in at endogenous locus)
Summary of the method: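 NCI-H295R cells carrying HiBiT-tagged SF-1, plated and grown 24 hr, then exposed to serially diluted compounds for 24 hr at 37° C. Remaining SF-1 read by lytic HiBiT luminescence; degradation rate from treated vs compound-free signal, DC50 as concentration giving 50% degradation.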

[2] = system: NCI-H295R cells; assay: Proliferation inhibitory action on NCI-H295R (CellTiter-Glo, 7 days); type: cell-based, human; settings: Homo sapiens, NCI-H295R, 168 h
Summary of the method: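 Compounds serially diluted in DMSO; cells seeded at 2×10^3 cells/well and cultured 7 days at 37° C, 5% CO2. CellTiter-Glo 2.0 luminescence read at day 0 and day 7; proliferation rate derived from compound-addition-day signal, untreated day-7 signal and treated day-7 signal.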

[3] = system: NCI-H295R cell subcutaneous transplant model; assay: Antitumor activity against NCI-H295R cell subcutaneous transplant model (adrenocortical carcinoma); type: in vivo, mouse; settings: female NSG mice, oral 30 mg/kg/day QD x 10 to 11, day the test was terminated
Description: NCI-H295R cells were subcutaneously transplanted at 1.0 to 2.0×10^7 cells/head into the right flank of female NSG mice and, when the estimated tumor volume (major axis×minor axis×minor axis/2) reached 100 to 300 mm^3, the mice were divided into groups of 4 to 5 mice each such that no difference was present between groups. Female NSG mice were purchased from Charles River Japan Co., Ltd. From the day of grouping, each compound was orally administered at a dose of 30 mg/kg/day once a day for 10 to 11 consecutive days (QD×10 to 11). Individual estimated tumor volumes were measured from the day of grouping until 11 to 12 days after grouping (the day the test was terminated). To the vehicle-control group was administered 0.5% methylcellulose containing 6.2-6.4 mM mesylic acid.
The antitumor activity against the NCI-H295R cell subcutaneous transplant model in Experimental Example 5 was calculated by the following formula on the day the test was terminated.

[4] = system: xenograft model derived from a prostate cancer patient; assay: Antitumor activity in human prostate cancer cell subcutaneous transplant model (patient-derived xenograft); type: in vivo, mouse; settings: male NSG mice, oral 100 mg/kg/day QD x 28 to 32, day of completion of test
Text: A xenograft model derived from a prostate cancer patient (obtained from the National Institute of Biomedical Innovation (NIBIO)) was used for antitumor evaluation. Tumors excised from seed mice were cut into about 4-5 mm squares and subcutaneously transplanted into the right flank of male NSG mice. On the fourth day after transplantation, the mice were divided into groups of 8 to 10 mice each to ensure uniformity of the seed mice. From the day of grouping, each compound was orally administered once a day at a dose of 100 mg/kg/day for 28 to 32 consecutive days (QD x 28 to 32). Individual estimated tumor volumes were measured from the day of grouping until the day after the final administration (the day of completion of test). To the vehicle-control group was administered 0.5% methylcellulose containing 21.3 mM mesylic acid.
The antitumor activity in the human prostate cancer cell subcutaneous transplant model was calculated by the following formula on the day of completion of each test.

[5] = system: mouse uterus; assay: Inhibitory activity on normal mouse uterine weight (inhibitory action on estrogen activity); type: in vivo; settings: female NSG mice, oral 100 mg/kg/day QD x 8, 24 hr after final administration, relative to vehicle control group
Description: Female NSG mice were purchased from Charles River Japan, Inc. From the day of grouping, each compound was orally administered at a dose of 100 mg/kg/day once a day for 8 consecutive days (QD×8). To the vehicle-control group was administered 0.5% methylcellulose. 24 hr after the final administration, the wet weight of the mouse uterus was measured, and the relative uterine weight (%) to the vehicle control group was calculated by the following formula.
The relative uterine weight (unit: %) of the compound corresponding to each Example No. to the vehicle control group is shown in Table 100.

SMILES | DC50 [1] [nM] | GI50 [2] [nM] | tumor growth inhibition rate (%) [3] [%] | tumor growth inhibition rate (%) [4] [%] | relative uterine weight (%) [5] [%]
COc1ccc([C@]2(CCN(Cc3ccc(C4=CC[C@H](CN5CCN(C(=O)c6ccc7c8c6CCCn8c(=O)n7C6CCC(=O)NC6=O)CC5)CC4)cc3)CC(C)(C)C(F)(F)F)CCOC(C)(C)C2)cc1 (stereo partly drawn) [AW5, 3-{7-[(4-{[(4R)-4′-{[{2-[(4R)-4-(4-Methoxyphenyl)-2,2-dimethyltetrahydro-2H-pyran-4-yl]ethyl)(3,3,3-trifluoro-2,2-dimethylpropyl)amino]methyl}-2,3,4,5-tetrahydro[biphenyl]-4-yl]methyl}piperazin-1-yl)carbonyl]-2-oxo-5,6-dihydro-4H-imidazo[4,5,1-ij]quinolin-1(2H)-yl}piperidine-2,6-dione] | 12 | 85 | 109 | 10 | 74
COc1ccc([C@]2(CCN(Cc3ccc(C4=CC[C@H](C(=O)N5CCC(Nc6ccc7c8c6CCCn8c(=O)n7C6CCC(=O)NC6=O)CC5)CC4)c(F)c3)CC(C)(C)C(F)(F)F)CCOC(C)(C)C2)cc1 (stereo partly drawn) [BK9, 3-{7-[(1-{[(4R)-2′-Fluoro-4′-{[{2-[(4R)-4-(4-methoxyphenyl)-2,2-dimethyltetrahydro-2H-pyran-4-yl]ethyl)(3,3,3-trifluoro-2,2-dimethylpropyl)amino]methyl}-2,3,4,5-tetrahydro[biphenyl]-4-yl]carbonyl}piperidin-4-yl)amino]-2-oxo-5,6-dihydro-4H-imidazo[4,5,1-ij]quinolin-1(2H)-yl}piperidine-2,6-dione] | 3.2 | 24 | 131 | 43 | 56
COc1ccc([C@]2(CCN(Cc3ccc(C4=CC[C@H](CN5CCN(C(=O)c6ccc7c8c6NCCn8c(=O)n7C6CCC(=O)NC6=O)CC5)CC4)cc3)CC(C)(C)C(F)(F)F)CCOC(C)(C)C2)cc1 (stereo partly drawn) [BY7, 3-{7-[(4-{[(4R)-4′-{[{2-[(4R)-4-(4-Methoxyphenyl)-2,2-dimethyltetrahydro-2H-pyran-4-yl]ethyl)(3,3,3-trifluoro-2,2-dimethylpropyl)amino]methyl}-2,3,4,5-tetrahydro[biphenyl]-4-yl]methyl}piperazin-1-yl)carbonyl]-2-oxo-5,6-dihydro-4H-imidazo[1,5,4-de]quinoxalin-1(2H)-yl}piperidine-2,6-dione] | 7.3 | 54 | 118 | 38 | 42
